Test results reported in ChEMBL document CHEMBL5465560, “Selectivity Literature for EUbOPEN Chemogenomic Library” (2024).

Legend:
[1] = target: T1, Myosin-IIIb (Homo sapiens) (UniProt Q8WXR4); test: Selectivity interaction (KinomeScan (DiscoverX)) EUB0000229b MYO3B; details: at 10 µM
T1 sequence (whole entry): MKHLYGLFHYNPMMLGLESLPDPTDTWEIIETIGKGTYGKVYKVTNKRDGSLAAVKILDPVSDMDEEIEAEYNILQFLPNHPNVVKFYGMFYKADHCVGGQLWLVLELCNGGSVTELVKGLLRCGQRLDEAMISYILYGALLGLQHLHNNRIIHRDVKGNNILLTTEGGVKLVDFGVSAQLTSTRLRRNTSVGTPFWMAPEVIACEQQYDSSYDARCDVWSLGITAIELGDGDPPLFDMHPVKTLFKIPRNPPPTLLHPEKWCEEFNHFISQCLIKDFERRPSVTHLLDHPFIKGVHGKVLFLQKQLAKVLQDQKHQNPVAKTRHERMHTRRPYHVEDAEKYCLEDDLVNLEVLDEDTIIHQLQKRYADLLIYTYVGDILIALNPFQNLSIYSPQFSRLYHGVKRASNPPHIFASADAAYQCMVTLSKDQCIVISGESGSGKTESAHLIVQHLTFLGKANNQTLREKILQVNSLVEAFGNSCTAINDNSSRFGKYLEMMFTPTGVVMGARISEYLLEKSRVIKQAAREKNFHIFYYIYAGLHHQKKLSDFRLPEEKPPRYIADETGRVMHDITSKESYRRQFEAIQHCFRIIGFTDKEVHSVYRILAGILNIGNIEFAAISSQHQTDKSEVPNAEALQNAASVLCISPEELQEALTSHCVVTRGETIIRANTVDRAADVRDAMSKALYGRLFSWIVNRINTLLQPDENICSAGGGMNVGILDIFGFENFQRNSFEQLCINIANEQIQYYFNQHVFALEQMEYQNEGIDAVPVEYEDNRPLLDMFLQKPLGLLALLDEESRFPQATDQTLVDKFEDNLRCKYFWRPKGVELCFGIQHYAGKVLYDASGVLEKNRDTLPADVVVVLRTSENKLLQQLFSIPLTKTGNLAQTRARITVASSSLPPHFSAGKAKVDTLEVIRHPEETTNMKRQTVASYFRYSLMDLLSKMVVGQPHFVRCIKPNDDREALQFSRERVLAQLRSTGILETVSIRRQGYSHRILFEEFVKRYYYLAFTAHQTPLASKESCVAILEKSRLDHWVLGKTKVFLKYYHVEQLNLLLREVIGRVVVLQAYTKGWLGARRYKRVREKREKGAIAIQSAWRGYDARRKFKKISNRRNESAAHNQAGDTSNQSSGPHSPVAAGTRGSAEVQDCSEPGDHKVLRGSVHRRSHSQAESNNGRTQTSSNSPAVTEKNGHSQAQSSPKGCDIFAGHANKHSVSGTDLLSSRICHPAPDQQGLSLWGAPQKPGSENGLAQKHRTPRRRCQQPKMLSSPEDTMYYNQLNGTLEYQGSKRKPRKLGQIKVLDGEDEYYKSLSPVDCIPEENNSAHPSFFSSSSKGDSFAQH

[2] = target: Citron Rho-interacting kinase (Homo sapiens) (UniProt O14578); test: Selectivity interaction (KinomeScan (DiscoverX)) EUB0000092b CIT; details: at 10 µM
Sequence of Citron Rho-interacting kinase (Homo sapiens) (O14578 whole entry): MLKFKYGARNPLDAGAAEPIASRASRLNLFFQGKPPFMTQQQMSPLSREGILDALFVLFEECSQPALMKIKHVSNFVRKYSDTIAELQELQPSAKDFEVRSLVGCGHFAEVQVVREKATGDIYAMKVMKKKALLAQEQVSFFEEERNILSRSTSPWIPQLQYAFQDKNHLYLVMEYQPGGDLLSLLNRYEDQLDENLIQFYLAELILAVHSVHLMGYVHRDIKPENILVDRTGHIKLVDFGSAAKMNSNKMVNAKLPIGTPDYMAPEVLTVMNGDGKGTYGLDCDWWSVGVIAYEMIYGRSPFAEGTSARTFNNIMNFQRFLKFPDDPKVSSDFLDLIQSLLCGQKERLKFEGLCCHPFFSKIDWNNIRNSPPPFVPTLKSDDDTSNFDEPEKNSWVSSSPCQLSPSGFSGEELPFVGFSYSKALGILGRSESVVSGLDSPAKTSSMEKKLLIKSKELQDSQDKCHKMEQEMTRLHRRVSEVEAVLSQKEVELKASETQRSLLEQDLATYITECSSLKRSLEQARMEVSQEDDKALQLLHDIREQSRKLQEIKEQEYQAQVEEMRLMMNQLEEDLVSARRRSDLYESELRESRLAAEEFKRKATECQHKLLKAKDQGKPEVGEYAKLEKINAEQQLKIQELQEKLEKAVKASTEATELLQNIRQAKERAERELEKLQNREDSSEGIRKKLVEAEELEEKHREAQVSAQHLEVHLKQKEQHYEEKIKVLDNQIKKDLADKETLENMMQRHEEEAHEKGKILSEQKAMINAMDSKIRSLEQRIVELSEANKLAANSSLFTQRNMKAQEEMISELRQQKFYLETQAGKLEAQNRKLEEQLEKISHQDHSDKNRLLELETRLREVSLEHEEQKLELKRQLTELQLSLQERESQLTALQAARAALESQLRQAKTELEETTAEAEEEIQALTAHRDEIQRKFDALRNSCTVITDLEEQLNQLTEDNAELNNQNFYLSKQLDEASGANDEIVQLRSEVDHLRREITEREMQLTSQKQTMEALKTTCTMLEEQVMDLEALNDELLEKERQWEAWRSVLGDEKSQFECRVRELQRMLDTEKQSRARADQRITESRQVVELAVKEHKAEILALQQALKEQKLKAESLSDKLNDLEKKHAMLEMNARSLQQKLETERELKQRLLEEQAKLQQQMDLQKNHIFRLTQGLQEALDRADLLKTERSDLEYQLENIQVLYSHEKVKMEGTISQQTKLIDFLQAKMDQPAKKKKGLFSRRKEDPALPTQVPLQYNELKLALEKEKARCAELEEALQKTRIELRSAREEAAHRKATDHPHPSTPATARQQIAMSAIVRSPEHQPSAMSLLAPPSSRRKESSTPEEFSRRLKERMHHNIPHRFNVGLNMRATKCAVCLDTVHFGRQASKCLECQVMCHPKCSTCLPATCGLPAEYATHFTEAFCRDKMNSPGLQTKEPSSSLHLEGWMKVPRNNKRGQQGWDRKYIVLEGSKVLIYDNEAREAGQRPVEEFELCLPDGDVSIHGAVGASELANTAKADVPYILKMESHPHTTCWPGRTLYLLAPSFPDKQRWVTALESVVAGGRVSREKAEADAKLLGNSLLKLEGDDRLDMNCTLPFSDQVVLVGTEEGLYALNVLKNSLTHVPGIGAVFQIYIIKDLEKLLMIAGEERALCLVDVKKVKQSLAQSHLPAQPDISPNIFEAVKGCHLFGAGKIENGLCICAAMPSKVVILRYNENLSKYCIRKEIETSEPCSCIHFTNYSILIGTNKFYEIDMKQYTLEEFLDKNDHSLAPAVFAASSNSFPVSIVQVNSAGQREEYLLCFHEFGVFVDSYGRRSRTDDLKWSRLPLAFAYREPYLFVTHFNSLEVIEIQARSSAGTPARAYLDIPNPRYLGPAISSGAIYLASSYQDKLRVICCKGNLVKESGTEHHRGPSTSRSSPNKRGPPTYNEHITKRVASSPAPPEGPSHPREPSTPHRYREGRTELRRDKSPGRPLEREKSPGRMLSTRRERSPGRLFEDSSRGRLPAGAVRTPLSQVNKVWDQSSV

[3] = target: T2, Serine/threonine-protein kinase TBK1 (Homo sapiens) (UniProt Q9UHD2); test: Selectivity interaction (KinomeScan (DiscoverX)) EUB0000655a TBK1; details: at 10 µM
T2 sequence (whole entry): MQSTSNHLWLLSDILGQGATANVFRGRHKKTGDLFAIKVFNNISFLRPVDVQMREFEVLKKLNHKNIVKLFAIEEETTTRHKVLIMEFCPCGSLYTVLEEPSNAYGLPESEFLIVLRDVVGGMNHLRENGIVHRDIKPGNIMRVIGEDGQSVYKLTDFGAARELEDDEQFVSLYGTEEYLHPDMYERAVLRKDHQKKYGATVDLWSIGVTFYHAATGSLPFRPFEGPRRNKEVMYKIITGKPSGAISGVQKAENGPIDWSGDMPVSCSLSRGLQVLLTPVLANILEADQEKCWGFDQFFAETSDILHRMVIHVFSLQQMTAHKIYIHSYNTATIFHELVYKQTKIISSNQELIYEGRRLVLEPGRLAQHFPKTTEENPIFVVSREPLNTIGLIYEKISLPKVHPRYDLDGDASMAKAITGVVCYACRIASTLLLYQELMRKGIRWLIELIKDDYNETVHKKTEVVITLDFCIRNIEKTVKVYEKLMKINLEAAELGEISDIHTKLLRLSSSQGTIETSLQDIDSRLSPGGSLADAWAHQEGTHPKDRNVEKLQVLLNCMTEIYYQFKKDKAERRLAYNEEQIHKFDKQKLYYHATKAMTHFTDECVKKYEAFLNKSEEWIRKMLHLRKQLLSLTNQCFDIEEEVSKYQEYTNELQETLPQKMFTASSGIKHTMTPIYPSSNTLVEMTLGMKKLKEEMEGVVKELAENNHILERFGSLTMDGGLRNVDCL

[4] = target: Rho-associated protein kinase 2 (Homo sapiens, UniProt O75116); test: Selectivity interaction (KinomeScan (DiscoverX)) EUB0000695a ROCK2; details: at 100 nM
Sequence of Rho-associated protein kinase 2 (O75116 whole entry, looked up): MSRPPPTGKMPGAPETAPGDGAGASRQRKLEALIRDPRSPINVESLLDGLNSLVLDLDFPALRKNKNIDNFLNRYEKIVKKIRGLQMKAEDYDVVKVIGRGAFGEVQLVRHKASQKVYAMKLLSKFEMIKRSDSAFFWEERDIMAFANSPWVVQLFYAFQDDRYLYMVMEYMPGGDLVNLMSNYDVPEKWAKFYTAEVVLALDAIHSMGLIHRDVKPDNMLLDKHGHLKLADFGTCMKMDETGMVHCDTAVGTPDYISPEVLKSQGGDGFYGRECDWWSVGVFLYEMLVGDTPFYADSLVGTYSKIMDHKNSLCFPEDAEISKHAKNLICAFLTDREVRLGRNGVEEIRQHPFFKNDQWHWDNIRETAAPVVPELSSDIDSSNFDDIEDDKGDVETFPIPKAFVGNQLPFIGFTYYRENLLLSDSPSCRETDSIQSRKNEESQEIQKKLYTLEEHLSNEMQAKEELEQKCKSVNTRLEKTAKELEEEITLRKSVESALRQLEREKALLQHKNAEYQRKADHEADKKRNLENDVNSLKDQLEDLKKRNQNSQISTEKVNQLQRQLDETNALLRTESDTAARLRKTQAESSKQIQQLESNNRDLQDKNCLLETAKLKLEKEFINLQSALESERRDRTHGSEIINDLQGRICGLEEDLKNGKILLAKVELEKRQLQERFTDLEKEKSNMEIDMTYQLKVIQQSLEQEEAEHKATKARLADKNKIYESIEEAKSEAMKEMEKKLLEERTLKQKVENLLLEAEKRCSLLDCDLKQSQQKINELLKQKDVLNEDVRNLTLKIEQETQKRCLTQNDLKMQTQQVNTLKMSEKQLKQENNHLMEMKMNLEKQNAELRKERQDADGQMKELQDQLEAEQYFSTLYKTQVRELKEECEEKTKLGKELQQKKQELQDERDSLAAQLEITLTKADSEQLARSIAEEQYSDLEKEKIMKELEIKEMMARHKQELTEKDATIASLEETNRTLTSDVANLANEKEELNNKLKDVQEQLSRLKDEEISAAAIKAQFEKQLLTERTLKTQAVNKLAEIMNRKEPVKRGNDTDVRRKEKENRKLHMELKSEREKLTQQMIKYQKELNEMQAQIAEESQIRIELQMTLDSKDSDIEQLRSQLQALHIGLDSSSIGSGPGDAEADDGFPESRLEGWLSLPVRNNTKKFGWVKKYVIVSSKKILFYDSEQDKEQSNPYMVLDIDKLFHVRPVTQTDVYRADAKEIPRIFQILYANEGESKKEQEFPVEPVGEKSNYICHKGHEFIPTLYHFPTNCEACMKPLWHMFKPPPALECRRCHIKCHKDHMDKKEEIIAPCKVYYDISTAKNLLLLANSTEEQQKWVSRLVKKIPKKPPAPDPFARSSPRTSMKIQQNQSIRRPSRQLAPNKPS

[5] = target: L-type calcium channel Cav1.2 (CACNA1C) (Homo sapiens, UniProt Q13936); test: Selectivity interaction (Panel of kinases, GPCRs, ion channels and transporters (enzymatic assay)) EUB0000223bCl CACNA1C
[6] = target: Serine/threonine-protein kinase 33 (Homo sapiens) (UniProt Q9BYT3); test: Selectivity interaction (ProQinase) EUB0000171b STK33
Sequence of Serine/threonine-protein kinase 33 (Homo sapiens) (Q9BYT3 whole entry, looked up): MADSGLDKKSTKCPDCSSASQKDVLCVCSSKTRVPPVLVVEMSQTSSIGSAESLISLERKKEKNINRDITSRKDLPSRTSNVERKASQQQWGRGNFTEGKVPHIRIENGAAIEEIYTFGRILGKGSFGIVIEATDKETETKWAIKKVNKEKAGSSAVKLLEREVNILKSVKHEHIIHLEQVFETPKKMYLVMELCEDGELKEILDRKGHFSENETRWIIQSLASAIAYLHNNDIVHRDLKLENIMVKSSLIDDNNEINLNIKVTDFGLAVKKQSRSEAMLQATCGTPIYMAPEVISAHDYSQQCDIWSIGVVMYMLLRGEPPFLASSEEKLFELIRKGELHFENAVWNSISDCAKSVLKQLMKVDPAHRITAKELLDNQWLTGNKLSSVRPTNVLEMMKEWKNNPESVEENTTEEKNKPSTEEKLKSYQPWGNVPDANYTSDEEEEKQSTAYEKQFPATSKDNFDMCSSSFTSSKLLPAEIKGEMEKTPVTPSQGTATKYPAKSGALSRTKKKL

## COc1cc(N(C)c2ccnc3ccc(C(F)(F)F)cc23)cc(OC)c1OC
[1]
  % binding: 100%

## CCC(=O)N1CCN(c2ccc(-n3c(=O)ccc4cnc5ccc(-c6cnc7ccccc7c6)cc5c43)cc2C(F)(F)F)CC1
[2]
  % of control: 59%

## CN(C)CCOc1ccc(-c2nc(-c3ccncc3)c(-c3ccc4c(c3)CC/C4=N\O)[nH]2)cc1
[3]
  % of control: 84%

## Cc1cc(F)c(C(=O)Nc2cccc(-c3nncn3C(C)C)n2)cc1-n1cnc(C2CC2)c1
[4]
  % of control: 81%

## COc1cc(C(=O)N2CC[C@@H](O)[C@@H](N)C2)cc2nc(-c3cc4ccccc4n3CC3CC3)n(C)c12
[5]
  XC50: 3.98 µM

## C=CC(=O)Nc1cccc(C(=O)Nc2ccc(Nc3cc(-c4[nH]c(SC)nc4C)ccn3)cc2)c1
[6]; at 1 µM
  % of control: 76%
[6]; at 5 µM
  % of control: 71%
